Patent US20250387388A1, “COMPOUND AS TRK INHIBITOR AND/OR RET INHIBITOR AND USE THEREOF” (Medinno Pharmaceutical Technology (Zhuhai) Co., Ltd., priority 2022, published 2025)

Key:
[1] = system: external hemorrhoids in rats; test: External hemorrhoid model in rats (acetic acid); type: in vivo, SD rats
Text: • (1) Blank control group (7 rats) • (2) Hemorrhoid model group (10 rats) • (3) Hemorrhoid model group+positive control drug (Mayinglong Hemorrhoid Ointment) group (8 rats) • (4) Hemorrhoid model group+vehicle treatment (Gel excipient) (8 rats) • (5) Hemorrhoids model group+0.1% MDI-1228 gel preparation group (8 rats) • (6) Hemorrhoids model group+0.3% MDI-1228 gel preparation group (8 rats) • (7) Hemorrhoids model group+1% MDI-1228 gel preparation group (8 rats) • (8) Hemorrhoids model group+3% MDI-1228 gel preparation group (8 rats) • Experimental environment: Temperature 20° C.-26° C., humidity 40%-70%
Apart from the normal control group, all groups were treated by first disinfecting the perianal skin. A 75% acetic acid solution was prepared and injected subcutaneously in a scattered pattern around the anus of each rat at a dose of 0.05 ml.
The recipe and preparation method for 1% MDI-1228 gel were as follows:
The control group and model group received no treatment (no therapy). Administration begined 24 hours after the model induction was successful. Group 3) was administrated with Mayinglong Hemorrhoid Ointment (7.5 g/Kg), three times, 10 min each time; Group 4) was administrated with a blank gel forming agent (1 g/Kg) around the anus; Groups 5)-8) were administrated with different concentrations of MDI-1228 compound gel preparation (1 g/Kg) around the anus, twice daily, 10 min each time, followed by covering with plastic wrap and fixing with tape to prevent the drug from falling off and affecting efficacy. After 6 hours, the dressing was removed, and the application site was cleaned with normal saline. The administration was continued for 11 days.
Observe the healing of the ulcer site on days 3, 5, 7, 9, and 11 of administration, and assess the ulcer score (scoring criteria: ulcer exudate present=1 point; minimal ulcer exudate=2 points; scab present, nearly healed=3 points; completely healed=4 points).
On an 11-day administration, animals were euthanized by inhalation of excess carbon dioxide, and perianal rectal tissue was taken for HE staining, and serum was taken for ELISA detection.
Tissue samples from animal Rectal were excised, fixed in 10% neutral formalin buffer solution, dehydrated, embedded in paraffin, and sectioned and HE stained for observation of rectal histopathological morphology changes. The reagents and instruments required for HE staining included: Hematoxylin staining solution (AR11800-1, BOSTER); Eosin staining solution (AR11800-2, BOSTER); Ultra-clean advanced mounting medium (YZB, BASO); Scott's blueing solution (G1865, Solarbio), etc. Medication refrigerator (BYC-310, Shandong Bokai Biotech); Microscope (CX41 OLYMPUS); Microtome (BQ-318D, Berne); Electric heating blast drying oven (DHG-9070A, Hengke Scientific Instrument Co., Ltd.). The taken tissue was rinsed with running water for several hours, dehydrated through a series of ethanol solutions (70%, 80%, 90%), and then treated with a mixture of pure alcohol and xylene at a ratio of 1:1 for 15 minutes, followed by xylene I for 15 minutes and xylene II for 15 minutes (until transparent). The tissue was then placed in a mixture of xylene and paraffin at a ratio of 1:1 for 15 minutes, followed by immersion with paraffin I and paraffin 11 each for 50-60 minutes. The tissue was embedded in paraffin and sectioned, and the sections were dried, dewaxed and hydrated in distilled water. […]

[2] = system: alopecia areata in mice; test: Alopecia areata model in mice (imiquimod); type: in vivo, C3H/HeJ mice
Description: • Blank control group (no treatment) (N=5) • Blank alopecia areata model group (no treatment) (N=8) • Alopecia areata model+blank excipient group (vehicle treatment: blank gel preparation, dose: 1.5 g/kg per mouse, twice daily per mouse) (N=8) • Alopecia areata model+positive control drug group (compound Betamethasone cream (corticosteroid), twice daily, 50 mg each time per mouse) (N=8) • Alopecia areata model+0.5% MDI-1228 compound gel preparation group (dose: 1.0 g/kg per mouse, twice daily per mouse) (N=8) • Alopecia areata model+1% MDI-1228 compound gel preparation group (dose: 1.5 g/kg per mouse, twice daily per mouse) (N=8) • Alopecia areata model+3% MDI-1228 compound gel preparation group (dose: 1.5 g/kg per mouse, twice daily) (N=8) • Blank alopecia areata model (vehicle treatment: 5% DMSO+75% PEG300+20% EtOH) (N=8)
Modeling: Imiquimod cream was applied to the nape of the animals (no hair removal required), three times a week for three consecutive weeks. The control group was treated with a blank excipient without imiquimod. Each time, a clean medical cotton swab was used to apply approximately 0.03 g of imiquimod evenly over an area of about 1 cm×1 cm, and the application site was cleaned with normal saline before each application. The operation was performed gently to avoid skin abrasions or mechanical hair loss due to friction. […] During the modeling, the hair loss of the mice was recorded.
The blank control group (untreated) received no treatment; the drug groups were treated with the corresponding doses of compound betamethasone cream, blank gel preparation, and MDI-1228 compound gel preparation applied to the skin, twice daily (at 9 AM and 5 PM, with an interval of at least 6 hours). Note: To prevent animals from licking the medication off each other, after the gel was applied, the animals were placed individually in a pad-free independent cage to move around for a period of time to allow the gel to air dry for 1 hour before being returned to the normal feeding cage. Single housing is discouraged as it can lead to depression; wrapping the application area with gauze is also prohibited as it can absorb the medication.
During the treatment period, the local changes in the hair loss area of the mice were observed, and the hair growth and adverse reactions were recorded in detail, and scores were assigned according to the following table.
The reagents and instruments required for HE staining included: Hematoxylin staining solution (AR11800-1, BOSTER); Eosin staining solution (AR11800-2, BOSTER); Ultra-clean advanced mounting medium (YZB, BASO); Scott's blueing solution (G1865, Solarbio), etc. Medication refrigerator (BYC-310, Shandong Bokai Biotech); Microscope (CX41 OLYMPUS); Microtome (BQ-318D, Berne); Electric heating blast drying oven (DHG-9070A, Hengke Scientific Instrument Co., Ltd.). The taken tissue was rinsed with running water for several hours, dehydrated through a series of ethanol solutions (70%, 80%, 90%), and then treated with a mixture of pure alcohol and xylene at a ratio of 1:1 for 15 minutes, followed by xylene I for 15 minutes and xylene II for 15 minutes until transparent. The tissue was then placed in a mixture of xylene and paraffin at a ratio of 1:1 for 15 minutes, followed by immersion with paraffin I and paraffin II each for 50-60 minutes. The tissue was embedded in paraffin and sectioned.

`CCc1cc(O)c(F)cc1-c1ccc2c(-c3nc4c([nH]3)CN(C(=O)N3CC[C@H](O)C3)C4)n[nH]c2c1` [MDI-1228, (S)-(2-(6-(2-ethyl-5-fluoro-4-hydroxyphenyl)-1H-indazol-3-yl)-4,6-dihydropyrrolo[3,4-d]imidazol-5-(1H)-yl)(3-hydroxylpyrrolidin-1-yl)ketone] was tested, and the “TNF-α expression in blood (ELISA)” value ([1]; 0.1%, 0.3%, 1%, 3% MDI-1228 gel, positive control drug, vs. model group) was “could all downregulate the expression of TNF-α”, the “Perianal ulcer healing score” value ([1]; 1% MDI-1228 gel 1 g/Kg twice daily, vs. model group) was “significant therapeutic effect after a 7-days administration” and the “Perianal rectal tissue HE staining pathological score” value ([1]; 3% MDI-1228 gel) was “the best effect”. For the same compound, the “Perianal rectal tissue HE staining pathological score” value ([1]; MDI-1228 gel at concentrations of 0.3% or more) was “more significant”, the “Alleviation and treatment of external hemorrhoids” value ([1]; MDI-1228 gel preparations at different concentrations) was “can effectively alleviate and treat external hemorrhoids in rats” and the “Skin HE staining (hair follicles)” value ([2]; 0.5%, 1%, 3% MDI-1228 gel) was “some therapeutic effect”. For the same compound, the “Area under the curve (AUC) of hair growth scores” value ([2]; 0.5%, 1%, 3% MDI-1228 gel twice daily, vs. blank gel group) was “significantly promoted hair growth in alopecia areata animals”, the “Hair growth scores after 21 days” value ([2]; 3% MDI-1228 gel) was “the best effect” and the “Hair growth scores after 21 days” value ([2]; all MDI-1228 treatment groups (0.5%, 1%, 3% gel), vs. model group) was “significantly higher than the model group”. The “Symptoms of alopecia areata (conclusion)” value ([2]; mouse, in vivo) was “can improve the symptoms of alopecia areata in mice to a certain extent”.
